In brackets after ≈: the same amount, converted by molar mass.

Data on 2 molecules can be found in ChEMBL document CHEMBL1764991, “Epiafzelechin from the root bark of Cassia sieberiana: detection by DART mass spectrometry, spectroscopic characterization, and antioxidant properties” (J Nat Prod, 2011).

Test [1] in a line: Antioxidant activity assessed as ferric ion reducing activity using fe3+-TPTZ at 40 ug/ml by FRAP assay. Type of test: functional.
In test [2] the test system is Radical scavenging activity. Nature of the test: Antioxidant activity assessed as DPPH radical scavenging activity. Type of test: functional.
Test [3] is described as follows: Antioxidant activity assessed as ferric ion reducing activity using fe3+-TPTZ at 80 ug/ml by FRAP assay. Type of test: functional.
Test [4] deals with Liver. In words: Inhibition of H2O2-induced lipid peroxidation in rat liver homogenates assessed as malondialdehyde level at 80 ug/ml after 4 hrs. Type of test: functional, tissue-based.
Test [5] can be described thus: Antioxidant activity assessed as ferric ion reducing activity using fe3+-TPTZ at 20 ug/ml by FRAP assay. Type of test: functional.
The subject of test [6] is Liver. In words: Inhibition of H2O2-induced lipid peroxidation in rat liver homogenates assessed as malondialdehyde level after 4 hrs. Type of test: functional, tissue-based.
The test system of test [7] is Liver. In words: Inhibition of H2O2-induced lipid peroxidation in rat liver homogenates assessed as malondialdehyde level at 32 ug/ml after 4 hrs. Type of test: functional, tissue-based.

Take `Oc1ccc([C@H]2Oc3cc(O)cc(O)c3C[C@H]2O)cc1` [EPIAFZELECHIN (2R,3R)(-)]: the Activity in test [1] was determined as 978 µM/L; in test [3], 1510 µM/L; in test [5], 493 µM/L; in test [6], 14.4 nM/ml. For the same molecule, the IC50 (as a rule, the point on the concentration scale where inhibition reaches its midpoint) in test [2] is 9.25 µg/mL (≈ 33.7 µM). Besides, the inhibition – broadly, the drop in the measured response relative to a control, in per cent – in test [4] amounted to 81.8%.

Consider `O=c1c(O)c(-c2ccc(O)c(O)c2)oc2cc(O)cc(O)c12` [QUERCETIN], for which the inhibition in test [7] was 75.4%. In addition, the IC50 in test [2] worked out at 23.53 µg/mL (≈ 77.9 µM). The Activity in test [6] is 19.4 nM/ml.
